Results from patent publication US20060115863A1, “Inositol phosphate detection assays” (AstraZeneca AB, priority 2002, published 2006).

How the values were obtained:
[1] = target: human neurokinin NK1 receptors (Homo sapiens, UniProt P25103); assay: NK1-mediated PI hydrolysis measured with Zr4+-SPA beads (IMAC-SPA); assay type: cell-based
Description: CHO cells stably expressing human neurokiuin NK1 receptors were maintained in 5% CO2 and at 37° C. in Ham's F12 medium supplemented with 10% fetal bovine serum (FBS) and 0.5 mg/ml G418. For experiments, the cells were plated onto 96-well plates in inositol-free DMEM medium containing 10% FBS and 5 μCi/ml [3 H]inositol (0.5 μCi/well). After 16-48 hr incubation, the medium was removed and the cells were incubated for 15 min with or without NK1 antagonist in phosphate-free lithium-containing Hanks solution (PFLH) (composition: 20 mM HEPES, pH 7.4, 1.25 mM MgCl2, 1.25 mM CaCl2, 5 mM KCl, 125 mM NaCl, 10 mM LiCl and 10 mM glucose). […] At the end of the incubation, the agonist solution was removed and 100 μl ice-cold 20 mM formic acid solution (pH3.0) containing 2 mM myo-inositol was added in each well to release inositol phosphates from the cells. After incubation at 4° C. for over 10 min, the samples were transferred to a white opaque plate, and 100 μl of metal ion loaded IMAC-SPA beads added to each well. Alternatively, IMAC-SPA beads could be added directly to the cell plate to eliminate the sample transfer step. The amount of [^3H] inositol phosphates generated in the cells was then determined by measurement of the radioactivity on the SPA beads on TopCount® NXT®. […]

PDGF receptor = assay: PDGF receptor-mediated PI hydrolysis in quiescent Swiss 3T3 cells measured with Zr4+-SPA beads; assay type: cell-based
Description: Swiss 3 T 3 cells were maintained in DMEM medium supplemented with 10% heat-inactivated calf serum. For PI hydrolysis assay, the cells were grown in 96-well plates in [^3H]inositol-containing medium for 16-48 hr, then deprived of serum for 24 hr. The cells were stimulated with PDGF-BB for 45-60 min and the inositol phosphate accumulated in the cells was measured by IMAC-SPA in the same way as described for NK1 receptors.
The PDGF receptor belongs to the superfamily of tyrosine kinase-linked growth factor receptors. Stimulation of the PDGF receptor leads to activation of PLC-y through Ras-related GTPase (Ji et al., 1999, Mol. Cell. Biol., 1999. 19:49614970; Wang et al., 1998, Mol. Cell. Biol., 18:590-597; Heldin et al., 1998, Biochim. Biophys. Acta, 1378:F79-113; Stice et al., 1999, Front. Biosci., 4:D72-86).

human neurokinin NK1 receptors, sequence (P25103 whole entry): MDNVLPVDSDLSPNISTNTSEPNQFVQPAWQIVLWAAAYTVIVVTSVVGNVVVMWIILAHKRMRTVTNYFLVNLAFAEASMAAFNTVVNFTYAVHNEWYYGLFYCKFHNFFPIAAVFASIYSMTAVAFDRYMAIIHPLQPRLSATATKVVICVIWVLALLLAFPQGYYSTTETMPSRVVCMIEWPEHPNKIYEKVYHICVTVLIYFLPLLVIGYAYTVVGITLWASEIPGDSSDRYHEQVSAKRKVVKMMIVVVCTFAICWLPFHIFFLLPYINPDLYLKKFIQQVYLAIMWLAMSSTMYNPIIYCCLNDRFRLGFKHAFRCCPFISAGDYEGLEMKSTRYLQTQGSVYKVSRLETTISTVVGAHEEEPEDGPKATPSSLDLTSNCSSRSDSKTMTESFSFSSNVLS

Substance P
increase in signal ([3H]inositol phosphate) over the control ([1]; 0.1 μM, CHO cells expressing NK1 receptor, Zr4+-loaded SPA beads, saline control): 12 fold

PDGF-BB: Human recombinant platelet-derived growth factor (PDGF-BB) from Calbiochem
EC50 of stimulation of PI hydrolysis (PDGF receptor): 3.0 ng/mL | maximal increase in inositol phosphate production (PDGF receptor): 5 fold

FC(F)(F)c1cc(CO[C@H]2CCCN[C@H]2c2ccccc2)cc(C(F)(F)F)c1 [L-733060]
inhibition of PI hydrolysis induced by Substance P (mode) ([1]; NK1 CHO cells, shifted the concentration-response curve to the right): inhibited competitively
